These results are taken from US20220340597A1, “HEXAHYDRO-1H-PYRAZINO[1,2-A]PYRAZINE COMPOUNDS FOR THE TREATMENT OF AUTOIMMUNE DISEASE” (Hoffmann-La Roche Inc., priority 2019, published 2022).

This experiment concerns the target T1, human TLR9 (Homo sapiens, UniProt Q9NR96).
T1 construct: host or cells: HEK293 (HEK-Blue hTLR9)
T1 sequence (Q9NR96 26-1032): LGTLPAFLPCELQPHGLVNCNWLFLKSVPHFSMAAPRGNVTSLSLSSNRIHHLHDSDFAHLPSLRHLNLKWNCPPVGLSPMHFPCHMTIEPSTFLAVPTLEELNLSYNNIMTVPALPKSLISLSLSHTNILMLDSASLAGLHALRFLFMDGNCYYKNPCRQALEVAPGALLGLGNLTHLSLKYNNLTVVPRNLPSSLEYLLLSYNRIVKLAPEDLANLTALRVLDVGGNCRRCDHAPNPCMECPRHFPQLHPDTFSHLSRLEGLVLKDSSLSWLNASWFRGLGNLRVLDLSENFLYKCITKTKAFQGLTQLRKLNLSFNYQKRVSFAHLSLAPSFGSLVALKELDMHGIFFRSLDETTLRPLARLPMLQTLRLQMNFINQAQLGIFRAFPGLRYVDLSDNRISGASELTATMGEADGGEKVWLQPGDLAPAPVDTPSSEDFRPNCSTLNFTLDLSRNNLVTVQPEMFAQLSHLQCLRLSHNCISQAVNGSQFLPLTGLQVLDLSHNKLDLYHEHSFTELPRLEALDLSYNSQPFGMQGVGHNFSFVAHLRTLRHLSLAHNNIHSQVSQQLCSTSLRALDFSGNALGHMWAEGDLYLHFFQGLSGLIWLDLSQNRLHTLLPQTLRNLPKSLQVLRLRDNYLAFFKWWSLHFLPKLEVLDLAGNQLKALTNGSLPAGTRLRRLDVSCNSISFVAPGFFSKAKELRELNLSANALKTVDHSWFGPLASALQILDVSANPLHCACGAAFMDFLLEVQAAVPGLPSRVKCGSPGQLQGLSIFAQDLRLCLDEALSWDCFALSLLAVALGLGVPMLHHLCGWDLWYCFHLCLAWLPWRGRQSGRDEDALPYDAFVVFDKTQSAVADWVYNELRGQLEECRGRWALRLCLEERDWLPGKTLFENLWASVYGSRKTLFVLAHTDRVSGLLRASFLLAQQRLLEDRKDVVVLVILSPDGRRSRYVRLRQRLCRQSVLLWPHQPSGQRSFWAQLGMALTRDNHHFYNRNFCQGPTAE
The experiment is described as follows: HEK293-Blue-hTLR-9 cells assay. The experiment is classed as cell-based. The note with it: HEK293-Blue-hTLR9 cells, ODN2006 stimulation, 20 hrs, SEAP reporter; read-out: HEK/hTLR9 IC50. How it is done: The following tests were carried out in order to determine the activity of the compounds of formula (I) and (Ia) in HEK293-Blue-hTLR-7/8/9 cells assay.
HEK293-Blue-hTLR-9 Cells Assay:
A stable HEK293-Blue-hTLR-9 cell line was purchased from InvivoGen (Cat. #: hkb-htlr9, San Diego, Calif., USA). These cells were originally designed for studying the stimulation of human TLR9 by monitoring the activation of NF-κB. A SEAP (secreted embryonic alkaline phosphatase) reporter gene was placed under the control of the […] minimal promoter fused to five NF-κB and AP-1-binding sites. The SEAP was induced by activating NF-κB and AP-1 via stimulating HEK-Blue hTLR9 cells with TLR9 ligands. Therefore, the reporter expression was declined by TLR9 antagonist under the stimulation of a ligand, such as ODN2006 (Cat. #: tlr1-2006-1, Invivogen, San Diego, Calif., USA), for incubation of 20 hrs. The cell culture supernatant SEAP reporter activity was determined using QUANTI-Blue™ kit (Cat. #: rep-qb1, Invivogen, San Diego, Calif., USA) at a wavelength of 640 nm, a detection medium that turns purple or blue in the presence of alkaline phosphatase.
Then 20 μL of the supernatant from each well was incubated with 180 μL Quanti-blue substrate solution at 37° C. for 2 h and the absorbance was read at 620-655 nm using a spectrophotometer. The signaling pathway that TLR9 activation leads to downstream NF-κB activation has been widely accepted, and therefore similar reporter assay was modified for evaluating TLR9 antagonist.

Molecules are shown by their SMILES. Where only a bound is given, the exact number is not on record here.

Regarding `C[C@@H]1CN(c2ccc(C#N)c3ncccc23)C[C@@H]2CN(c3ccnc(N4CCNCC4)n3)CCN21` [Example 33, 5-[(4R,9aR)-4-methyl-8-(2-piperazin-1-ylpyrimidin-4-yl)-3,4,6,7,9,9a-hexahydro-1H-pyrazino[1,2-a]pyrazin-2-yl]quinoline-8-carbonitrile], the IC50 is 64 nM.
Consider `[2H]c1ccc2c(N3C[C@@H]4CN(Cc5ccc(N6CCNCC6)nc5)CCN4[C@H](C)C3)ccc(C#N)c2n1` [Example 78, 5-[(4R,9aS)-4-methyl-8-[(6-piperazin-1-yl-3-pyridyl)methyl]-3,4,6,7,9,9a-hexahydro-1H-pyrazino[1,2-a]pyrazin-2-yl]-2-deuterio-quinoline-8-carbonitrile], for which the IC50 was less than 32 nM.
As to `C[C@@H]1CN(c2ccc(C#N)c3ncccc23)C[C@@H]2CN(c3ccnc(N4CC[C@@](C)(N)C4)c3)CCN21` [Example 105, 5-[(4R,9aS)-8-[2-[(3R)-3-amino-3-methyl-pyrrolidin-1-yl]-4-pyridyl]-4-methyl-3,4,6,7,9,9a-hexahydro-1H-pyrazino[1,2-a]pyrazin-2-yl]quinoline-8-carbonitrile], the IC50 is less than 32 nM.
Take `CO[C@@H]1CN(c2ccc(CCN3CCN4[C@@H](C3)CN(c3ccc(C#N)n5ncc(F)c35)C[C@H]4C)cc2)C[C@H]1N` [Example 66, 4-[(4R,9aS)-8-[2-[4-[(3R,4R)-3-amino-4-methoxy-pyrrolidin-1-yl]phenyl]ethyl]-4-methyl-3,4,6,7,9,9a-hexahydro-1H-pyrazino[1,2-a]pyrazin-2-yl]-3-fluoro-pyrazolo[1,5-a]pyridine-7-carbonitrile]: the IC50 is 116 nM.
Turning to `C[C@@H]1CN(c2cccc(CCN3CCN4[C@@H](C3)CN(c3ccc(C#N)c5ncccc35)C[C@H]4C)n2)CCN1` [Example 58, 5-[(4R,9aS)-4-methyl-8-[2-[6-[(3R)-3-methylpiperazin-1-yl]-2-pyridyl]ethyl]-3,4,6,7,9,9a-hexahydro-JH-pyrazino[1,2-a]pyrazin-2-yl]quinoline-8-carbonitrile], the IC50 turned out to be 51 nM.
For the molecule `C[C@@H]1CN(c2ccc(C#N)c3ncccc23)C[C@@H]2CN(CCc3ccc(N4C[C@H]5NCCO[C@@H]5C4)nc3)CCN21` [Example 124, 5-[(4R,9aS)-8-[2-[6-[(4aR,7aR)-3,4,4a,5,7,7a-hexahydro-2H-pyrrolo[3,4-b][1,4]oxazin-6-yl]-3-pyridyl]ethyl]-4-methyl-3,4,6,7,9,9a-hexahydro-1H-pyrazino[1,2-a]pyrazin-2-yl]quinoline-8-carbonitrile], the IC50 was found to be 55 nM.
On to `C[C@@H]1CN(c2ccc(C#N)c3ncccc23)C[C@@H]2CN(CCc3ccc(N4C[C@@H](N)[C@@H](F)C4)cn3)CCN21` [Example 19, 5-[(4R,9aS)-8-[2-[5-[(3R,4S)-3-amino-4-fluoro-pyrrolidin-1-yl]-2-pyridyl]ethyl]-4-methyl-3,4,6,7,9,9a-hexahydro-1H-pyrazino[1,2-a]pyrazin-2-yl]quinoline-8-carbonitrile], for which the IC50 is 48 nM.
The same measure for `[2H]c1ccc2c(N3C[C@@H]4CN(CCc5ccc(N6CC7(CN(C)C7)C6)nc5)CCN4[C@H](C)C3)ccc(C#N)c2n1` [Example 64, 5-[(4R,9aS)-4-methyl-8-[2-[6-(6-methyl-2,6-diazaspiro[3.3]heptan-2-yl)-3-pyridyl]ethyl]-3,4,6,7,9,9a-hexahydro-1H-pyrazino[1,2-a]pyrazin-2-yl]-2-deuterio-quinoline-8-carbonitrile]: 32 nM; for `C[C@@H]1CN(c2ccc(C#N)n3ncc(F)c23)C[C@@H]2CN(CCc3ccc(N4CC(C)(N)C4)nc3)CCN21` [Example 74, 4-[(4R,9aS)-8-[2-[6-(3-amino-3-methyl-azetidin-1-yl)-3-pyridyl]ethyl]-4-methyl-3,4,6,7,9,9a-hexahydro-1H-pyrazino[1,2-a]pyrazin-2-yl]-3-fluoro-pyrazolo[1,5-a]pyridine-7-carbonitrile]: 48 nM; for `C[C@@H]1CN(c2ccc(C#N)c3ncccc23)C[C@@H]2CN(Cc3cccc(N4CCNCC4)n3)CCN21` [Example 27, 5-[(4R,9aS)-4-methyl-8-[(6-piperazin-1-yl-2-pyridyl)methyl]-3,4,6,7,9,9a-hexahydro-1H-pyrazino[1,2-a]pyrazin-2-yl]quinoline-8-carbonitrile]: 49 nM.
Take `[2H]c1ccc2c(N3C[C@@H]4CN(c5ncc(N6C[C@H]7NCCO[C@@H]7C6)cc5C)CCN4[C@@H](C)C3)ccc(C#N)c2n1` [Example 114, 5-[(4S,9aR)-8-[5-[(4aR,7aR)-3,4,4a,5,7,7a-hexahydro-2H-pyrrolo[3,4-b][1,4]oxazin-6-yl]-3-methyl-2-pyridyl]-4-methyl-3,4,6,7,9,9a-hexahydro-1H-pyrazino[1,2-a]pyrazin-2-yl]-2-deuterio-quinoline-8-carbonitrile]: the IC50 stood at 110 nM.
Under `C[C@@H]1CN(c2ccc(C#N)c3ncccc23)C[C@@H]2CN(c3ccnc(N4CCOC[C@@H](N)C4)c3)CCN21` [Example 53, 5-[(4R,9aS)-8-[2-[(6S)-6-amino-1,4-oxazepan-4-yl]-4-pyridyl]-4-methyl-3,4,6,7,9,9a-hexahydro-1H-pyrazino[1,2-a]pyrazin-2-yl]quinoline-8-carbonitrile] stands less than 32 nM; under `C[C@@H]1CN(c2ccc(C#N)c3ncccc23)C[C@@H]2CN(Cc3ccc4c(c3)CCNC4)CCN21` [Example 10, 5-[(4R,9aS)-4-methyl-8-(1,2,3,4-tetrahydroisoquinolin-6-ylmethyl)-3,4,6,7,9,9a-hexahydro-1H-pyrazino[1,2-a]pyrazin-2-yl]quinoline-8-carbonitrile], 43 nM.
For `[2H]c1ccc2c(N3C[C@@H]4CN(CCc5ccc(N6C[C@@H](N)[C@H](OC)C6)nc5)CCN4[C@H](C)C3)ccc(C#N)c2n1` [Example 62, 5-[(4R,9aS)-8-[2-[6-[(3R,4R)-3-amino-4-methoxy-pyrrolidin-1-yl]-3-pyridyl]ethyl]-4-methyl-3,4,6,7,9,9a-hexahydro-1H-pyrazino[1,2-a]pyrazin-2-yl]-2-deuterio-quinoline-8-carbonitrile], the IC50 was 43 nM.
Under `C[C@@H]1CN(c2ccc(C#N)c3ncccc23)C[C@@H]2CN(Cc3cccc4c3CNC4)CCN21` [Example 72, 5-[(4R,9aS)-8-(isoindolin-4-ylmethyl)-4-methyl-3,4,6,7,9,9a-hexahydro-1H-pyrazino[1,2-a]pyrazin-2-yl]quinoline-8-carbonitrile] stands 89 nM; under `[2H]c1ccc2c(N3C[C@@H]4CN(c5ncc(C(=O)N6CC7(CN(C)C7)C6)cc5C)CCN4[C@@H](C)C3)ccc(C#N)c2n1` [Example 103, 5-[(4S,9aR)-4-methyl-8-[3-methyl-5-(6-methyl-2,6-diazaspiro[3.3]heptane-2-carbonyl)-2-pyridyl]-3,4,6,7,9,9a-hexahydro-1H-pyrazino[1,2-a]pyrazin-2-yl]-2-deuterio-quinoline-8-carbonitrile], 87 nM; under `C[C@@H]1CN(c2ccc(C#N)c3ncccc23)C[C@@H]2CN(CCc3ccc(N4CC5(CNCCO5)C4)nc3)CCN21` [Example 59, 5-[(4R,9aS)-4-methyl-8-[2-[6-(5-oxa-2,8-diazaspiro[3.5]nonan-2-yl)-3-pyridyl]ethyl]-3,4,6,7,9,9a-hexahydro-1H-pyrazino[1,2-a]pyrazin-2-yl]quinoline-8-carbonitrile], 48 nM.
Turning to `C[C@@H]1CN(c2ccc(C#N)c3ncccc23)C[C@@H]2CN(CCc3cccc(N4CCN[C@@H](C)C4)n3)CCN21` [Example 21, 5-[(4R,9aS)-4-methyl-8-[2-[6-[(3S)-3-methylpiperazin-1-yl]-2-pyridyl]ethyl]-3,4,6,7,9,9a-hexahydro-1H-pyrazino[1,2-a]pyrazin-2-yl]quinoline-8-carbonitrile], the IC50 came out at 56 nM.
